# Assay results from ChEMBL document CHEMBL3826904, “Ionic liquid-promoted multicomponent synthesis of fused tetrazolo[1,5-a]pyrimidines as α-glucosidase inhibitors” (Bioorg Med Chem Lett, 2016).
# pIC50: −log10 of the molar value. The source made the active and inactive calls. The rule behind the calls is not given here.
# Assays:
# [1] = target: Alpha-glucosidase MAL12 (Saccharomyces cerevisiae S288c) (UniProt P53341); test: Inhibition of yeast alpha-glucosidase MAL12 at 5 mM using 4-nitrophenyl-alpha-D-glucopyranoside as substrate preincubated for 30 mins followed by substrate addition measured after 10 mins by microplate reader analysis
# Sequence of Alpha-glucosidase MAL12 (Saccharomyces cerevisiae S288c) (P53341 whole entry): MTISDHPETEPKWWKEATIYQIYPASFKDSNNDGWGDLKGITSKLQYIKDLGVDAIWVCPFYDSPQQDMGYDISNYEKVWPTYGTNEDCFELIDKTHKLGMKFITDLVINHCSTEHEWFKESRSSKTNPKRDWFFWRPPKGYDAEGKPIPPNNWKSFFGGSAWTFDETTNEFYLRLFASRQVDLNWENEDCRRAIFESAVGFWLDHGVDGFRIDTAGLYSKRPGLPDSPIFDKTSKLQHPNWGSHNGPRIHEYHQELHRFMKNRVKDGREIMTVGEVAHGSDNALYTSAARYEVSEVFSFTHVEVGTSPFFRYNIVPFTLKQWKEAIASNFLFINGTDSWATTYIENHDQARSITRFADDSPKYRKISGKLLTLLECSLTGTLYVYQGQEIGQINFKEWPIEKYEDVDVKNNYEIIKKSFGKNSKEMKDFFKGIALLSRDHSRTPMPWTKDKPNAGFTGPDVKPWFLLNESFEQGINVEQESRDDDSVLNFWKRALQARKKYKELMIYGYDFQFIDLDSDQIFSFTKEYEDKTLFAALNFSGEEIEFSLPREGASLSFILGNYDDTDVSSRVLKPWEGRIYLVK
# [2] = target: T1, Pancreatic alpha-amylase (Homo sapiens) (UniProt P04746); test: Inhibition of pancreatic alpha-amylase (unknown origin) at 5 mM using starch as substrate preincubated for 30 mins followed by substrate addition measured after 10 mins by dinitrosalicylic acid method based microplate reader analysis
# T1 sequence (whole entry): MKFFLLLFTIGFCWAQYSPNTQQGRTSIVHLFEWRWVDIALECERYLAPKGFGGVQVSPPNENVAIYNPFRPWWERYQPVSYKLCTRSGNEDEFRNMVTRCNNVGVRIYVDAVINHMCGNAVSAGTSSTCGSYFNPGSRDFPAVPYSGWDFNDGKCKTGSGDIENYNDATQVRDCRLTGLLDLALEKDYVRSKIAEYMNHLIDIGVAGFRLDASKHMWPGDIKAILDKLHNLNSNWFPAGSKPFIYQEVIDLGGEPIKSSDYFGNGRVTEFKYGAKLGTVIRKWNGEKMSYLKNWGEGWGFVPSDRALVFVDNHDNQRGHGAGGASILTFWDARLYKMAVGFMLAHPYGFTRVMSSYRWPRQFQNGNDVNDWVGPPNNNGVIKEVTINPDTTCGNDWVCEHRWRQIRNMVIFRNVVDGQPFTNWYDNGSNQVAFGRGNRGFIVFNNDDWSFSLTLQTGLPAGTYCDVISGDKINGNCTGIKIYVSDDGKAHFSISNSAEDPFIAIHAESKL
# Alpha-glucosidase MAL12 = Alpha-glucosidase MAL12 (Saccharomyces cerevisiae S288c, UniProt P53341); test: Inhibition of yeast alpha-glucosidase MAL12 using 4-nitrophenyl-alpha-D-glucopyranoside as substrate preincubated for 30 mins followed by substrate addition measured after 10 mins by microplate reader analysis
# Sequence of Alpha-glucosidase MAL12 (P53341 whole entry): as the sequence (P53341 whole entry) above
Compound,inhibition [1],inhibition [2],pIC50 (Alpha-glucosidase MAL12)
c1ccc(-c2ccnc3nnnn23)cc1,Active,inactive,3.37
Oc1ccccc1-c1ccnc2nnnn12,Active,inactive,2.76
O=[N+]([O-])c1ccc(-c2ccnc3nnnn23)cc1,Active,inactive,3.51
c1ccc2oc(-c3ccnc4nnnn34)cc2c1,Active,inactive,
Cc1ccc(-c2ccnc3nnnn23)cc1,Active,inactive,4.30
Clc1ccc(-c2ccnc3nnnn23)cc1,Active,inactive,3.38
c1csc(-c2ccnc3nnnn23)c1,Active,inactive,2.99
O=c1oc2ccccc2cc1-c1ccnc2nnnn12,Active,inactive,3.35
COc1ccc(-c2ccnc3nnnn23)cc1,Active,inactive,4.07
Fc1ccc(-c2ccnc3nnnn23)cc1,Active,inactive,3.75
c1ccc(-c2ccnc3nnnn23)nc1,Active,inactive,3.23
Brc1ccc(-c2ccnc3nnnn23)cc1,Active,inactive,
